In patent US20100256152A1, “NOVEL PHARMACEUTICAL COMPOSITION FOR TREATMENT OF SCHIZOPHRENIA” (ASTELLAS PHARMA INC., priority 2009, published 2010):
Where a name gives a salt, the structure may show the parent alone.

How the values were obtained:
BEC1 potassium channel = target: T1, BEC1 potassium channel (Homo sapiens, UniProt Q9ULD8); assay: BEC1 inhibitory activity, 86Rb ion release from BEC1 expressing cells; format: cell-based; conditions: BEC1 stably expressing CHO (dhfr-deficient) cells, 100 mM KCl stimulation, 86Rb release; as free form; read-out: IC50 (μM) (Example 1)
T1 construct: expressed in transfected cells
T1 sequence (Q9ULD8 1-1083): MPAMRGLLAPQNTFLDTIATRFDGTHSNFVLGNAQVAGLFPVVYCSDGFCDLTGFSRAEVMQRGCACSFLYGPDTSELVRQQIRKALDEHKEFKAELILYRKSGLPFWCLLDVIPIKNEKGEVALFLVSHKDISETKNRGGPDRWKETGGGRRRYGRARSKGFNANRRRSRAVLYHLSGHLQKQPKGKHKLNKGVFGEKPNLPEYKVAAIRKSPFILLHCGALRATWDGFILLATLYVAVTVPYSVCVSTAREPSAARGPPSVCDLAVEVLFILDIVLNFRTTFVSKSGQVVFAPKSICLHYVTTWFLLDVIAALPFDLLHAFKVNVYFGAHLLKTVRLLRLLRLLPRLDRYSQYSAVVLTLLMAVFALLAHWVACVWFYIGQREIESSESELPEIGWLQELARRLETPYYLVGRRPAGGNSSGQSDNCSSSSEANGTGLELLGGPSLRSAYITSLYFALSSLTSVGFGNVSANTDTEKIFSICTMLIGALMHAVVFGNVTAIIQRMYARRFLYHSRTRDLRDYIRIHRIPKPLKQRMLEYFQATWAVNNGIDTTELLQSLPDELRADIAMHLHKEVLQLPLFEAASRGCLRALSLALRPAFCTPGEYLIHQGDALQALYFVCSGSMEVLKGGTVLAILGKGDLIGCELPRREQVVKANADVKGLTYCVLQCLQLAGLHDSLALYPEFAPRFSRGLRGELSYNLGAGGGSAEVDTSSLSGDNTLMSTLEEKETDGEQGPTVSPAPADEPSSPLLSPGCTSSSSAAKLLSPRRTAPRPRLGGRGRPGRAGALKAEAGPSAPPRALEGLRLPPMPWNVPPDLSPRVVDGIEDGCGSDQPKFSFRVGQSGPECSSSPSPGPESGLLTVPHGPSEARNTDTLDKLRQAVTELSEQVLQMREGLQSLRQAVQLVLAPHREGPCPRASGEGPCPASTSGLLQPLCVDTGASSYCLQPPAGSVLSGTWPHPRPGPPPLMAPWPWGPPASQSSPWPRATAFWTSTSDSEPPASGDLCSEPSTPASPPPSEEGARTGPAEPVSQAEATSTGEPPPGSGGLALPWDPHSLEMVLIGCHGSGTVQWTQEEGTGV
Experimental: Method for measuring BEC1 inhibitory activity of compound utilizing 86Rb ion release amount as index
The channel activity of BEC1 was measured according to the method described in U.S. Pat. No. 6,326,168 or U.S. Pat. No. 7,375,222, herein incorporated by reference, utilizing the release of the ions of radioactive isotope 86Rb from BEC1 expressing cells as an index. Specifically, when BEC1 expressing cells which had taken in 86Rb ions were stimulated with 100 mM KCl, the radioactivity released from the same cells was designated as the channel activity of BEC1. 86Rb ions were incorporated into cells by culturing (3 hours, 37° C.) BEC1 stably expressing cells in the presence of 86RbCl (0.5 μCi/ml), and the unincorporated 86Rb ions were removed by washing the cells three times with HEPES buffered physiological saline (pH 7.4, 2.5 mM KCl). The same cells were incubated for 15 minutes at room temperature in the presence of a DMSO solution containing the test compound and HEPES buffered physiological saline, and then were further incubated for 5 minutes at room temperature in the presence of a 100 mM KCl-containing HEPES buffer solution (pH 7.4) containing the same compound. The extracellular fluid was recovered, and then the remaining cells were lysed in 0.1 N NaOH and recovered. The Cherenkov radioactivities of the extracellular fluid and the cell lysate were respectively measured, and the sum was designated as the total radioactivity. The release amount of 86Rb ions was expressed as the percentage of the radioactivity of the extracellular fluid with respect to the total radiation activity. The value obtained in the presence of the compound was designated as a test value, the value obtained in the absence of the compound was designated as a control value, and the value obtained when the cells were not stimulated with 100 mM KCl was designated as a blank value. […] In addition, as for the BEC1 expressing cells, BEC1 stably expressing cells produced according to the method described in U.S. Pat. No. 6,326,168 or U.S. Pat. No. 7,375,222, herein incorporated by reference, using a dihydrofolate reductase (dhfr)-deficient strain of Chinese Hamster ovary cells, were used.

[1] = system: methamphetamine induced hyperlocomotion; assay: Methamphetamine induced hyperlocomotion model; format: in vivo, male ddY mouse; conditions: smallest oral dose giving significantly small activity vs solvent group; mouse; as free form
Experimental: Verification of the therapeutic effect on schizophrenia was carried out using a methamphetamine induced hyperlocomotion model. Methamphetamine is a psychostimulant, and is known to cause symptoms that are similar to schizophrenia by increasing the transmission in the dopaminergic neurons. The abnormal behavior produced when methamphetamine is administered to an animal is generally used as a screening method for a therapeutic drug for schizophrenia (Oka et al., 1993, J. Pharmacol. Exp. Ther., 264:158-165, herein incorporated by reference). That is, a male ddY mouse was placed in an activity monitoring apparatus, and after 30 minutes, methamphetamine was administered. After administering methamphetamine, the mouse was immediately returned to the monitoring apparatus, and the activity for one hour from immediately after the return was measured. For the measurement of the activity, a Supermex sensor manufactured by Muromachi Kikai Co., Ltd. was used. […] The solvent used was a 0.5% aqueous solution of methylcellulose. The statistical analysis was carried out between the solvent administered group and the drug administered groups, using Dunnett's test.
The test compounds (1) to (5) all suppressed methamphetamine induced hyperlocomotion.

[2] = system: phencyclidine induced prolonged immobility; assay: Phencyclidine induced prolonged immobility model (forced swimming test); format: in vivo, male ddY mouse; conditions: mouse; for phencyclidine induced prolonged immobility improving action (in words): oral administration; for Minimum effective dose (mg/kg p.o.) (Example 3): smallest oral dose giving significantly short immobility time vs solvent group, 1 h after administration, as free form
Experimental: Verification of the therapeutic effect on schizophrenia was carried out using a phencyclidine induced prolonged immobility model. Phencyclidine is a non-competitive antagonist of the N-methyl-D-aspartate receptor, a type of glutamate receptor, and abuse of this agent causes development of psychotic symptoms indistinguishable from those of schizophrenia. […] Forced swimming test is used as a screening assay for antidepressants, because immobility in this test is thought to reflect some aspect of depression such as lowering of motivation. Negative symptoms of schizophrenia also includes similar aspects, we could evaluate the efficacy of drugs for negative symptoms, such as apathy, using this test. Briefly, a male ddY mouse was gently placed in a cylindrical pool, and activity was measured for 3 min with SCANET (MV20-LAN, MELQUEST). Afterward immobility time was calculated with the SCANET file integrating software. Two days later, Mice were anesthetized with sodium pentobarbital. The Osmotic mini pumps (Alzet model 1002, DURECT Corporation) were subcutaneously implanted to mice. The pump infused saline or phencyclidine 1.2 mg/day/mouse with pumping rate of 0.25 μL/hour. Fourteen days after implantation, a test compound was administered to mice and an hour after administration, each mouse was gently placed in a cylindrical pool, and activity was measured for 3 min. Afterward immobility time was calculated. […] The solvent used was a 0.5% aqueous solution of methylcellulose. The statistical analysis was carried out between the solvent administered group and the drug administered groups, using Dunnett's test.

[3] = system: phencyclidine induced prolonged finding latency; assay: Water finding task in mice after neonatal treatment with phencyclidine; format: in vivo, male ddY mice; conditions: mouse; for phencyclidine induced prolonged finding latency improving action (in words): oral administration; for Minimum effective dose (mg/kg p.o.) (Example 4): smallest oral dose giving significantly short finding latency vs solvent group, as free form
Experimental: Verification of the therapeutic effect on schizophrenia was carried out using a water finding task in mice after neonatal treatment with phencyclidine. […] In addition, it has been reported that chronic treatment of PCP prolonged finding latency in the water-finding task (Mouri et al., 2007, Mol. Pharmacol., 180:152-60, herein incorporated by reference). Finding latency in the water-finding task provides a measure of latent learning in animals, which is thought to reflect attention. Attention is one of the most important domain of cognitive impairments in schizophrenia, we could evaluate the efficacy of drugs for cognitive impairments in schizophrenia using this task. Briefly, male ddY mice subcutaneously received PCP at a dose of 15 mg/kg or saline on postnatal day 7, 9 and 11. During the adult 7 weeks old, test compounds were orally administered to animals and 60 minutes later, the animals were placed in one corner of the open field and allowed to freely explore the training apparatus for 3 min. Immediately after the training trial, the animals were returned to their home cage and deprived of water until the test trial the next day. In the test trial, the mice were again placed individually in the test apparatus. The time between entering the alcove and drinking the water was measured. […] The solvent used was a 0.5% aqueous solution of methylcellulose. The statistical analysis was carried out between the solvent administered group and the drug administered groups, using Dunnett's test.

Row | IC50 (BEC1 potassium channel) [µM] | Compound | Minimum effective dose (mg/kg p.o.) (Example 2) [1] | also measured
1 | – | Fc1ccc(Nc2nc(NCc3ncccn3)nc(Nc3ccc(F)cc3)n2)cc1 (as salt: HCl) [Compound 2a, N,N′-bis(4-fluorophenyl)-N″-(pyrimidin-2-ylmethyl)-1,3,5-triazine-2,4,6-triamine] | – | melting point: 183 to 186 °C
2 | 0.077 | Fc1ccc(Nc2nc(NCc3ncccn3)nc(Nc3ccccc3)n2)cc1 [Compound 1, N-(4-fluorophenyl)-N′-phenyl-N″-(pyrimidin-2-ylmethyl)-1,3,5-triazine-2,4,6-triamine] | 0.1 | phencyclidine induced prolonged immobility improving action (in words) [2]: suppressed phencyclidine induced prolongation of immobility time; Minimum effective dose (mg/kg p.o.) (Example 3) [2]: 0.03 mg/kg p.o.; phencyclidine induced prolonged finding latency improving action (in words) [3]: suppressed phencyclidine induced prolongation of finding latency; Minimum effective dose (mg/kg p.o.) (Example 4) [3]: 0.03 mg/kg p.o.
3 | 0.065 | Fc1ccc(Nc2nc(NCc3ncccn3)nc(Nc3ccc(F)cc3)n2)cc1 [Compound 2a, N,N′-bis(4-fluorophenyl)-N″-(pyrimidin-2-ylmethyl)-1,3,5-triazine-2,4,6-triamine] | 0.03 | –
4 | – | Fc1ccc(Nc2nc(NCc3ncccn3)nc(Nc3ccc(F)cc3)n2)cc1 [Compound 2b, N,N′-bis(4-fluorophenyl)-N″-(pyrimidin-2-ylmethyl)-1,3,5-triazine-2,4,6-triamine] | – | phencyclidine induced prolonged immobility improving action (in words) [2]: suppressed phencyclidine induced prolongation of immobility time; Minimum effective dose (mg/kg p.o.) (Example 3) [2]: 0.01 mg/kg p.o.; phencyclidine induced prolonged finding latency improving action (in words) [3]: suppressed phencyclidine induced prolongation of finding latency; Minimum effective dose (mg/kg p.o.) (Example 4) [3]: 0.01 mg/kg p.o.
5 | 0.092 | COc1ccc(Nc2nc(NCc3ncccn3)nc(Nc3ccc(F)cc3)n2)cc1 [Compound 3, N-(4-fluorophenyl)-N′-(4-methoxyphenyl)-N″-(pyrimidin-2-ylmethyl)-1,3,5-triazine-2,4,6-triamine] | 0.03 | –
6 | 0.058 | Fc1ccc(Nc2nc(NCc3ccncn3)nc(Nc3ccc(F)cc3)n2)cc1 [Compound 4, N,N′-bis(4-fluorophenyl)-N″-(pyrimidin-4-ylmethyl)-1,3,5-triazine-2,4,6-triamine] | 0.01 | –
7 | – | Cl.Fc1ccc(Nc2nc(NCc3ccnc(F)c3)nc(Nc3ccccc3)n2)cc1 [Compound 5, N-(4-fluorophenyl)-N′-[(2-fluoro-4-pyridyl)methyl]-N″-phenyl-1,3,5-triazine-2,4,6-triamine hydrochloride] | 1.0 | –
8 | 0.24 | Cc1ccc(Nc2nc(NCc3ccnc(F)c3)nc(Nc3ccc(F)cc3)n2)cc1 [Compound 7, N-(4-fluorophenyl)-N′-[(2-fluoro-4-pyridyl)methyl]-N″-(4-methylphenyl)-1,3,5-triazine-2,4,6-triamine hydrochloride] | – | –
9 | 0.17 | COc1ccc(Nc2nc(NCc3ccnc(F)c3)nc(Nc3ccc(F)cc3)n2)cc1 [Compound 8, N-(4-fluorophenyl)-N′-[(2-fluoro-4-pyridyl)methyl]-N″-(4-methoxyphenyl)-1,3,5-triazine-2,4,6-triamine hydrochloride] | – | –
10 | 0.25 | COc1cccc(Nc2nc(NCc3ccnc(F)c3)nc(Nc3ccc(F)cc3)n2)c1 [Compound 10, N-(4-fluorophenyl)-N′-[(2-fluoro-4-pyridyl)methyl]-N″-(3-methoxyphenyl)-1,3,5-triazine-2,4,6-triamine hydrochloride] | – | –
